Test results published in patent US10023551B2, “Glutathione-cleavable prodrug and methods of use thereof” (GEORGETOWN UNIVERSITY, priority 2015, dated 2018).
Like-named read-outs stand apart in the source and are kept apart here. Values belong to the molecule of their own block, whether it stands above or below them.

Key:
MCF10A [1] = experiment: Inhibition of cell proliferation in normal cells (MCF10A); type: cell-based
Procedure: (§1) To evaluate the toxicity of YK-5-252 in cells, the inhibition of cell proliferation was measured in normal cells (MCF10A) and TNBC cells (MDA-MB-231). […] This lack of selectivity can be attributed to the toxicity of YK-5-252.

MDA-MB-231 [2] = experiment: Inhibition of cell proliferation in TNBC cells (MDA-MB-231); type: cell-based
Procedure: as §1

tubulin polymerization = experiment: Immunofluorescence staining of tubulin in TNBC cells; type: cell-based; settings: 50 nM, MDA-MB-231
Procedure: To determine the biological effect of YK-5-252, its mechanism of action was determined through immunofluorescence staining.

[3] = Fluorescence properties and activation via GSH cleavage; type: physicochemical; settings: for NIR fluorescence emission: without GSH, excitation of 492 nm
Procedure: FIG. 11 contains emission spectra of compounds described herein.
The fluorescence properties and ability to be activated via GSH cleavage of YK-5-252 were evaluated. DCM-NH2 has a NIR fluorescence emission at 650 nm with an excitation of 492 nm (FIG. 11, panel a). […] This can be due to the loss of electron donating ability of the amine group when attached to the linker. To ascertain the stability of YK-5-252 toward GSH, fluorescence was monitored in the presence of GSH.

MDA-MB-231 [4] = experiment: FACS analysis of cell population containing released DCM-NH2, TNBC cells; type: cell-based; settings: treated 48 hours
Procedure: (§2) To further investigate the in vivo activation of YK-5-252, fluorescence-activated cell sorting (FACS) was used. Cells were treated with YK-5-252 for 48 hours. After treatment, FACS analysis was conducted to determine how much of the cell population has DCM-NH2 present. […] HPLC analysis confirmed that CA-4 release is concurrent with the release of DCM-NH2 in a traceless manner (FIG. 14, panels (a-d)). The difference in prodrug cleavage in cancer cells versus normal cells is due to the higher levels of GSH produced in cancer cells.

MCF10A [5] = experiment: FACS analysis of cell population containing released DCM-NH2, normal cells; type: cell-based; settings: treated 48 hours
Procedure: as §2

[6] = HPLC analysis of cleavage by glutathione; type: physicochemical; settings: YK-5-252 200 μM; GSH 50 mM
Procedure: FIG. 14 contains HPLC traces. Panel (a) is a trace of YK-5-252 (200 μM). Panel (b) is a trace of YK-5-252 (200 μM) and glutathione (GSH; 50 mM). Panel (c) is a trace of CA-4 (200 μM). Panel (d) is a trace of DCM (200 μM). […] After treatment with GSH (Panel (b)), the YK-5-252 peak at 10.5 minutes disappeared while two new peaks at 6.8 and 8.6 minutes appears which corresponds to the release of CA-4 and DCM-NH2, respectively (Panels (c) and (d)).
as §2

MDA-MB-231 versus MCF10A = experiment: Live cell imaging by confocal microscopy; type: cell-based; settings: 1 micromolar, 1 hour
Procedure: FIG. 12, panel (a) contains a confocal microscopy image of MDA-MB-231 cells (triple negative breast cancer cells) treated with YK-5-252 (1 micromolar) for 1 hour. Panel (b) contains a nuclear staining image of the cells with Hoesht dye. Panel (c) contains a merged image of panels (a) and (b). Panel (d) contains a confocal microscopy image of MCF10A (normal breast cells) treated with YK-5-252 (1 micromolar) for 1 hour. Panel (e) contains a nuclear stained image of the cells with Hoescht dye. Panel (f) contains a merged image of panels (d) and (e).
To test the ability of YK-5-252 to selectively release CA-4 in cancer cells, the presence of DCM was monitored through confocal microscopy. […] Also this experiment confirms the utility of YK-5-252 to monitor drug delivery and release in vivo.

[7] = test system: MCF-7 and MCF-10A cell lines; experiment: In vitro cytotoxicity assay; type: cell-based; settings: FIGS. 7 and 8
Excerpt: FIG. 7 contains plots for use in calculating the IC50 values for YK-5-252 and CA-4 in a MCF-7 cell line.
FIG. 8 contains plots for use in calculating the IC50 values for YK-5-252 and CA-4 in a MCF-10A cell line.
YK-5-252, the designed drug with linked disulfide bond described above, can be cleaved by intracellular glutathione (GSH). Cancer cells have a much higher GSH concentration than normal cells; therefore, this GSH-cleavable prodrug holds promising therapeutic efficacy. Near-infrared photons can deeply penetrate the skin and tissue with minimal damage. […] Due to its NIR fluorescent property, the compound also offers an excellent ability for tracking drug release in vivo.

Structure (SMILES): COc1ccc(/C=C\c2cc(OC)c(OC)c(OC)c2)cc1O [CA-4, combretastatin A-4, reference compound]
GI50 (MCF10A [1]; MCF10A normal breast cells, read-out: GI50 (Table 1)): < 0.001 nM
GI50 (MCF10A [1]; normal cells (MCF10A), read-out: GI50): < 0.001 nM
GI50 (MDA-MB-231 [2]; MDA-MB-231 TNBC cells, after 72 hours of treatment, read-out: GI50 (Table 1)): 2.81 nM
GI50 (MDA-MB-231 [2]; TNBC cells (MDA-MB-231), read-out: GI50): 28.1 nM
disruption of tubulin polymerization (tubulin polymerization; 1 hour): completely inhibited tubulin polymerization

NIR fluorescence emission [3]: 650 nm
Structure (SMILES): N#CC(C#N)=C1C=C(/C=C/c2ccc(N)cc2)Oc2ccccc21 [DCM-NH2, (E)-2-(2-(4-aminostyryl)-4H-chromen-4-ylidene)malononitrile]

Structure (SMILES): COc1ccc(/C=C\c2cc(OC)c(OC)c(OC)c2)cc1OC(=O)OCCSSCCOC(=O)Nc1ccc(/C=C/C2=CC(=C(C#N)C#N)c3ccccc3O2)cc1 [YK-5-252]
GI50 (MCF10A [1]; Homo sapiens, MCF-10A, MCF10A normal breast cells, read-out: GI50 (Table 1)): 19.2 nM
GI50 (MCF10A [1]; Homo sapiens, MCF-10A, normal cells (MCF10A), read-out: GI50): ~19.2 nM
GI50 (MDA-MB-231 [2]; Homo sapiens, MDA-MB-231 TNBC cells, after 72 hours of treatment, read-out: GI50 (Table 1)): 40.3 nM
GI50 (MDA-MB-231 [2]; Homo sapiens, TNBC cells (MDA-MB-231), read-out: GI50): 40.3 nM
cells containing DCM-NH2 (MDA-MB-231 [4]): 72%
cells containing DCM-NH2 (the fluorophore) (MCF10A [5]): about 5%
disruption of tubulin polymerization (tubulin polymerization; 1 hour): did not cause disruption of tubulin polymerization
disruption of tubulin polymerization (tubulin polymerization; 6 hours): began to disrupt tubulin polymerization
fluorescence emission in the presence of GSH ([3]; GSH 250 mM, pH 8, DMSO/PBS 50/50): 650 nm
NIR fluorescence emission [3]: no NIR emission
prodrug HPLC peak after treatment with GSH [6]: disappeared
fluorescence in TNBC cells versus normal breast cells (MDA-MB-231 versus MCF10A): higher quantities
toxicity compared with parent drug [7]: much less toxic than its linked parent drug
